# Source: patent US9708314B2, “Heterocyclic amide compound” (NISSAN CHEMICAL INDUSTRIES, LTD., priority 2013, dated 2017)
# Experiments:
# Assay in all cases: Test Example 2: herbicidal activity, application during weed generation in submerged conditions
# Type in all cases: in vivo
# [1] = system: Echinochloa oryzacola Vasing.; conditions: Eighteenth Table
# In short: (§1)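 Post-emergence application under submerged conditions: water-diluted emulsion dosed onto the water surface (g/ha) when weeds reach one- to two-leaf stage. Soil flooded to 4 cm; greenhouse 25–30 °C. Herbicidal ratio graded in six classes, 0 (≤5%) to 5 (≥90%), at three weeks.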
# Scirpus juncoides = conditions: Eighteenth Table
# In short: as §1
# Monochoria vaginalis = conditions: Eighteenth Table; application herbicide amount 320 g/ha
# In short: as §1
# [2] = application herbicide amount 320 g/ha
# [3] = application herbicide amount 260 g/ha
Compound,"A (Echinochloa oryzicola Vasing.) herbicidal ratio grade [1, 2]",B (Scirpus juncoides) herbicidal ratio grade (Scirpus juncoides; [2]),C (Monochoria vaginalis) herbicidal ratio grade (Monochoria vaginalis),"A (Echinochloa oryzicola Vasing.) herbicidal ratio grade [1, 3]",B (Scirpus juncoides) herbicidal ratio grade (Scirpus juncoides; [3])
Cc1nnc(NC(=O)c2ccc(C(F)(F)F)n3c(SC4CCCC4)nnc23)o1 [1-154],0 (Herbicidal ratio of 5% or less (almost no effect)),2 (Herbicidal ratio of 20% or more and less than 40%),0 (Herbicidal ratio of 5% or less (almost no effect)),–,–
O=C(Nc1nnco1)c1ccc(C(F)(F)F)n2c(SC3CCCC3)nnc12 [1-155],1 (Herbicidal ratio of 5% or more and less than 20%),2 (Herbicidal ratio of 20% or more and less than 40%),0 (Herbicidal ratio of 5% or less (almost no effect)),–,–
Cc1nnc(NC(=O)c2ccc(C(F)(F)F)n3c(SCc4ccc(Cl)nc4)nnc23)o1 [1-156],0 (Herbicidal ratio of 5% or less (almost no effect)),3 (Herbicidal ratio of 40% or more and less than 70%),2 (Herbicidal ratio of 20% or more and less than 40%),–,–
O=C(Nc1nnco1)c1ccc(C(F)(F)F)n2c(SCc3ccc(Cl)nc3)nnc12 [1-157],0 (Herbicidal ratio of 5% or less (almost no effect)),1 (Herbicidal ratio of 5% or more and less than 20%),0 (Herbicidal ratio of 5% or less (almost no effect)),–,–
COc1ccc(N(C)c2nnc3c(C(=O)Nc4nnco4)ccc(C(F)(F)F)n23)cc1 [1-171],4 (Herbicidal ratio of 70% or more and less than 90%),–,–,–,–
C=CCN(C)c1nnc2c(C(=O)Nc3nnco3)ccc(C(F)(F)F)n12 [1-172],3 (Herbicidal ratio of 40% or more and less than 70%),4 (Herbicidal ratio of 70% or more and less than 90%),3 (Herbicidal ratio of 40% or more and less than 70%),–,–
Cn1nnnc1NC(=O)c1ccc(C(F)(F)F)n2cnnc12 [2-001],2 (Herbicidal ratio of 20% or more and less than 40%),2 (Herbicidal ratio of 20% or more and less than 40%),3 (Herbicidal ratio of 40% or more and less than 70%),–,–
Cc1nnc2c(C(=O)Nc3nnnn3C)ccc(C(F)(F)F)n12 [2-002],2 (Herbicidal ratio of 20% or more and less than 40%),1 (Herbicidal ratio of 5% or more and less than 20%),2 (Herbicidal ratio of 20% or more and less than 40%),–,–
CC(C)c1nnc2c(C(=O)Nc3nnnn3C)ccc(C(F)(F)F)n12 [2-003],5 (Herbicidal ratio of 90% or more (almost completely withered)),3 (Herbicidal ratio of 40% or more and less than 70%),4 (Herbicidal ratio of 70% or more and less than 90%),–,–
Cn1nnnc1NC(=O)c1ccc(C(F)(F)F)n2c(CS(C)(=O)=O)nnc12 [2-034],5 (Herbicidal ratio of 90% or more (almost completely withered)),4 (Herbicidal ratio of 70% or more and less than 90%),4 (Herbicidal ratio of 70% or more and less than 90%),–,–
Cn1nnnc1NC(=O)c1ccc(C(F)(F)F)n2c(C[S+]([O-])CC(F)(F)F)nnc12 (stereo not shown) [2-035],2 (Herbicidal ratio of 20% or more and less than 40%),2 (Herbicidal ratio of 20% or more and less than 40%),3 (Herbicidal ratio of 40% or more and less than 70%),–,–
Cn1nnnc1NC(=O)c1ccc(C(F)(F)F)n2c(S(C)(=O)=O)nnc12 [2-037],5 (Herbicidal ratio of 90% or more (almost completely withered)),5 (Herbicidal ratio of 90% or more (almost completely withered)),5 (Herbicidal ratio of 90% or more (almost completely withered)),–,–
CCS(=O)(=O)c1nnc2c(C(=O)Nc3nnnn3C)ccc(C(F)(F)F)n12 [2-038],5 (Herbicidal ratio of 90% or more (almost completely withered)),4 (Herbicidal ratio of 70% or more and less than 90%),5 (Herbicidal ratio of 90% or more (almost completely withered)),–,–
CCOC(=O)Cc1nnc2c(C(=O)Nc3nnnn3C)ccc(C(F)(F)F)n12 [2-040],4 (Herbicidal ratio of 70% or more and less than 90%),3 (Herbicidal ratio of 40% or more and less than 70%),4 (Herbicidal ratio of 70% or more and less than 90%),–,–
COCCn1nnnc1NC(=O)c1ccc(C(F)(F)F)n2c(C(C)C)nnc12 [2-041],5 (Herbicidal ratio of 90% or more (almost completely withered)),4 (Herbicidal ratio of 70% or more and less than 90%),3 (Herbicidal ratio of 40% or more and less than 70%),–,–
Cc1ccc(-c2nnc3c(C(=O)Nc4nnnn4C)ccc(C(F)(F)F)n23)cc1 [2-042],4 (Herbicidal ratio of 70% or more and less than 90%),3 (Herbicidal ratio of 40% or more and less than 70%),4 (Herbicidal ratio of 70% or more and less than 90%),–,–
Cn1nnnc1NC(=O)c1ccc(C(F)(F)F)n2c(-c3ccc(F)cc3)nnc12 [2-043],5 (Herbicidal ratio of 90% or more (almost completely withered)),4 (Herbicidal ratio of 70% or more and less than 90%),4 (Herbicidal ratio of 70% or more and less than 90%),–,–
COc1cccc(-c2nnc3c(C(=O)Nc4nnnn4C)ccc(C(F)(F)F)n23)c1 [2-044],5 (Herbicidal ratio of 90% or more (almost completely withered)),4 (Herbicidal ratio of 70% or more and less than 90%),4 (Herbicidal ratio of 70% or more and less than 90%),–,–
COc1ccccc1-c1nnc2c(C(=O)Nc3nnnn3C)ccc(C(F)(F)F)n12 [2-045],5 (Herbicidal ratio of 90% or more (almost completely withered)),3 (Herbicidal ratio of 40% or more and less than 70%),4 (Herbicidal ratio of 70% or more and less than 90%),–,–
CC(C)c1nnc2c(C(=O)Nc3nnnn3C)ccc(C(F)F)n12 [2-047],3 (Herbicidal ratio of 40% or more and less than 70%),5 (Herbicidal ratio of 90% or more (almost completely withered)),4 (Herbicidal ratio of 70% or more and less than 90%),–,–
CSCCn1nnnc1NC(=O)c1ccc(C(F)(F)F)n2c(C(C)C)nnc12 [2-048],3 (Herbicidal ratio of 40% or more and less than 70%),4 (Herbicidal ratio of 70% or more and less than 90%),3 (Herbicidal ratio of 40% or more and less than 70%),–,–
CC(C)c1nnc2c(C(=O)Nc3nnnn3C)ccc(C(F)(F)C(F)(F)F)n12 [2-049],5 (Herbicidal ratio of 90% or more (almost completely withered)),5 (Herbicidal ratio of 90% or more (almost completely withered)),4 (Herbicidal ratio of 70% or more and less than 90%),–,–
CN(C)c1nnc2c(C(=O)Nc3nnnn3C)ccc(C(F)(F)F)n12 [2-051],5 (Herbicidal ratio of 90% or more (almost completely withered)),5 (Herbicidal ratio of 90% or more (almost completely withered)),5 (Herbicidal ratio of 90% or more (almost completely withered)),–,–
CSC(C)c1nnc2c(C(=O)Nc3nnnn3C)ccc(C(F)(F)F)n12 (stereo not shown) [2-052],5 (Herbicidal ratio of 90% or more (almost completely withered)),4 (Herbicidal ratio of 70% or more and less than 90%),4 (Herbicidal ratio of 70% or more and less than 90%),–,–
CC(c1nnc2c(C(=O)Nc3nnnn3C)ccc(C(F)(F)F)n12)[S+](C)[O-] (stereo not shown) [2-053],5 (Herbicidal ratio of 90% or more (almost completely withered)),4 (Herbicidal ratio of 70% or more and less than 90%),4 (Herbicidal ratio of 70% or more and less than 90%),–,–
CC(c1nnc2c(C(=O)Nc3nnnn3C)ccc(C(F)(F)F)n12)S(C)(=O)=O (stereo not shown) [2-054],5 (Herbicidal ratio of 90% or more (almost completely withered)),4 (Herbicidal ratio of 70% or more and less than 90%),5 (Herbicidal ratio of 90% or more (almost completely withered)),–,–
CC(C)Nc1nnc2c(C(=O)Nc3nnnn3C)ccc(C(F)(F)F)n12 [2-066],3 (Herbicidal ratio of 40% or more and less than 70%),–,3 (Herbicidal ratio of 40% or more and less than 70%),–,–
Cn1nnnc1NC(=O)c1ccc(C(F)(F)F)n2c(CO)nnc12 [2-108],0 (Herbicidal ratio of 5% or less (almost no effect)),1 (Herbicidal ratio of 5% or more and less than 20%),–,–,–
Cn1nnnc1NC(=O)c1ccc(C(F)(F)F)n2c(C=O)nnc12 [2-109],–,–,–,1 (Herbicidal ratio of 5% or more and less than 20%),1 (Herbicidal ratio of 5% or more and less than 20%)
